Values quoted from earlier work, collected in patent publication US20160128970A1, “COMPOSITION AND METHOD FOR TREATING NOSEBLEEDS” (BINYARCO, LLC, priority 2005, published 2016).

bismuth subgallate
solubility in water: insoluble in water
